Source: PubChem BioAssay (NCI)
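48-hour exposure; five concentrations; linearly interpolated endpoints. Abbreviation: GI50, concentration required for 50% inhibition of growth. At the TGI there is no net growth.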

Legend:
Assay in all cases: NCI anticancer screen, dose series, 48 h
ACHN renal = test system: ACHN renal
PC-3 prostate = test system: PC-3 prostate
MDA-MB-231 breast = test system: MDA-MB-231 breast
COLO 205 colon = test system: COLO 205 colon
IGROV1 ovarian = test system: IGROV1 ovarian
NCI-H226 lung = test system: NCI-H226 lung
BT-549 breast = test system: BT-549 breast
UACC-62 melanoma = test system: UACC-62 melanoma
OVCAR-4 ovarian = test system: OVCAR-4 ovarian
MALME-3M melanoma = test system: MALME-3M melanoma
SF-268 CNS = test system: SF-268 CNS
UO-31 renal = test system: UO-31 renal
K-562 leukemia = test system: K-562 leukemia
OVCAR-5 ovarian = test system: OVCAR-5 ovarian
MCF7 breast = test system: MCF7 breast
UACC-257 melanoma = test system: UACC-257 melanoma
SF-539 CNS = test system: SF-539 CNS
KM12 colon = test system: KM12 colon
A549 NSCLC = test system: A549 NSCLC
SK-MEL-5 melanoma = test system: SK-MEL-5 melanoma
HCT-15 colon = test system: HCT-15 colon
SK-MEL-2 melanoma = test system: SK-MEL-2 melanoma
TK-10 renal = test system: TK-10 renal
NCI-H23 lung = test system: NCI-H23 lung
MDA-MB-435 = test system: MDA-MB-435
M14 melanoma = test system: M14 melanoma
HL-60(TB) leukemia = test system: HL-60(TB) leukemia
HOP-92 NSCLC = test system: HOP-92 NSCLC
OVCAR-3 ovarian = test system: OVCAR-3 ovarian
SK-OV-3 ovarian = test system: SK-OV-3 ovarian
SNB-75 CNS = test system: SNB-75 CNS
T-47D breast = test system: T-47D breast
LOX IMVI melanoma = test system: LOX IMVI melanoma
MDA-MB-468 breast = test system: MDA-MB-468 breast
HT29 colon = test system: HT29 colon
U251 CNS = test system: U251 CNS
SW-620 colon = test system: SW-620 colon
HCC-2998 colon = test system: HCC-2998 colon
RPMI-8226 leukemia = test system: RPMI-8226 leukemia
SK-MEL-28 melanoma = test system: SK-MEL-28 melanoma
SNB-19 CNS = test system: SNB-19 CNS
HOP-62 NSCLC = test system: HOP-62 NSCLC
A498 renal = test system: A498 renal
CAKI-1 renal = test system: CAKI-1 renal
NCI-H522 lung = test system: NCI-H522 lung
786-0 renal = test system: 786-0 renal
DU-145 prostate = test system: DU-145 prostate

What does the source list for CC(=O)Oc1ccccc1C(=O)[Se]CC(=O)Nc1cccc(C(F)(F)F)c1?
GI50 (ACHN renal): 2.39 µM; TGI (ACHN renal): 6.36 µM; GI50 (PC-3 prostate): 5.23 µM; TGI (PC-3 prostate): 21.9 µM; GI50 (MDA-MB-231 breast): 2.31 µM; TGI (MDA-MB-231 breast): 4.18 µM; GI50 (COLO 205 colon): 4.35 µM; TGI (COLO 205 colon): 17 µM; GI50 (IGROV1 ovarian): 2.05 µM; TGI (IGROV1 ovarian): 4 µM; GI50 (NCI-H226 lung): 3.11 µM; TGI (NCI-H226 lung): 5.55 µM; GI50 (BT-549 breast): 2.13 µM; TGI (BT-549 breast): 3.61 µM; GI50 (UACC-62 melanoma): 1.38 µM; TGI (UACC-62 melanoma): 3.07 µM; GI50 (OVCAR-4 ovarian): 5.19 µM; TGI (OVCAR-4 ovarian): 60.9 µM; GI50 (MALME-3M melanoma): 1.57 µM; TGI (MALME-3M melanoma): 3.04 µM; GI50 (SF-268 CNS): 2.69 µM; TGI (SF-268 CNS): 5.87 µM; GI50 (UO-31 renal): 1.23 µM; TGI (UO-31 renal): 2.56 µM; GI50 (K-562 leukemia): 5.59 µM; TGI (K-562 leukemia): 55.3 µM; GI50 (OVCAR-5 ovarian): 2.15 µM; TGI (OVCAR-5 ovarian): 5.12 µM; GI50 (MCF7 breast): 2.75 µM; TGI (MCF7 breast): 12.4 µM; GI50 (UACC-257 melanoma): 3.21 µM; TGI (UACC-257 melanoma): 9.82 µM; GI50 (SF-539 CNS): 1.87 µM; TGI (SF-539 CNS): 3.34 µM; GI50 (KM12 colon): 5.04 µM; TGI (KM12 colon): 19.5 µM; GI50 (A549 NSCLC): 1.66 µM; TGI (A549 NSCLC): 3.8 µM; GI50 (SK-MEL-5 melanoma): 1.29 µM; TGI (SK-MEL-5 melanoma): 2.69 µM; GI50 (HCT-15 colon): 1.42 µM; TGI (HCT-15 colon): 2.85 µM; GI50 (SK-MEL-2 melanoma): 2.84 µM; TGI (SK-MEL-2 melanoma): 10.9 µM; GI50 (TK-10 renal): 2.07 µM; TGI (TK-10 renal): 4.71 µM; GI50 (NCI-H23 lung): 1.5 µM; TGI (NCI-H23 lung): 3.87 µM; GI50 (MDA-MB-435): 3.12 µM; TGI (MDA-MB-435): 5.41 µM; GI50 (M14 melanoma): 1.95 µM; TGI (M14 melanoma): 3.83 µM; GI50 (HL-60(TB) leukemia): 1.78 µM; TGI (HL-60(TB) leukemia): 5.27 µM; GI50 (HOP-92 NSCLC): 0.763 µM; TGI (HOP-92 NSCLC): 2.15 µM; GI50 (OVCAR-3 ovarian): 1.71 µM; TGI (OVCAR-3 ovarian): 4.38 µM; GI50 (SK-OV-3 ovarian): 4.22 µM; TGI (SK-OV-3 ovarian): 20.3 µM; GI50 (SNB-75 CNS): 2.47 µM; TGI (SNB-75 CNS): 5.94 µM; GI50 (T-47D breast): 7.09 µM; TGI (T-47D breast): 49.5 µM; GI50 (LOX IMVI melanoma): 1.94 µM; TGI (LOX IMVI melanoma): 3.65 µM; GI50 (MDA-MB-468 breast): 1.75 µM; TGI (MDA-MB-468 breast): 3.35 µM; GI50 (HT29 colon): 1.88 µM; TGI (HT29 colon): 5.16 µM; GI50 (U251 CNS): 2.12 µM; TGI (U251 CNS): 5.3 µM; GI50 (SW-620 colon): 1.46 µM; TGI (SW-620 colon): 3.11 µM; GI50 (HCC-2998 colon): 11.9 µM; TGI (HCC-2998 colon): 25.7 µM; GI50 (RPMI-8226 leukemia): 5.44 µM; TGI (RPMI-8226 leukemia): 85 µM; GI50 (SK-MEL-28 melanoma): 2.06 µM; TGI (SK-MEL-28 melanoma): 4.35 µM; GI50 (SNB-19 CNS): 1.86 µM; TGI (SNB-19 CNS): 3.8 µM; GI50 (HOP-62 NSCLC): 2.91 µM; TGI (HOP-62 NSCLC): 5.44 µM; GI50 (A498 renal): 1.45 µM; TGI (A498 renal): 2.95 µM; GI50 (CAKI-1 renal): 0.198 µM; TGI (CAKI-1 renal): 0.361 µM; GI50 (NCI-H522 lung): 1.83 µM; TGI (NCI-H522 lung): 3.81 µM; GI50 (786-0 renal): 2.21 µM; TGI (786-0 renal): 4.62 µM; GI50 (DU-145 prostate): 2.09 µM; TGI (DU-145 prostate): 4.61 µM
